A short description of data set [1]: Cytotoxicity against mouse CCL8 cells after 72 hrs by MTT assay. Format: functional, cell-based. The settings on record: CCL8, 72 h. A general note: Tetrazolium dyes change colour on reduction, which living cells bring about.
The nature of data set [2]: Cytotoxicity against human MDA-MB-435S cells after 72 hrs by MTT assay. Format: functional, cell-based.
Data set [3] in a line: Cytotoxicity against human MES-SA cells after 72 hrs by MTT assay. It is filed as functional, cell-based.
A further data set deals with MCF7. Briefly: Cytotoxicity against human MCF7 cells after 72 hrs by MTT assay. As to conditions: MCF7, 72 h. Format: functional, cell-based.
Data set [4] in a line: Cytotoxicity against human HT1080 cells after 72 hrs by MTT assay. Format: functional, cell-based. The settings on record: HT-1080, 72 h.
Another data set deals with MG-22A. The data set can be described thus: Cytotoxicity against mouse MG-22A cells after 72 hrs by MTT assay. It is filed as functional, cell-based.
Data set [5] can be described thus: Cytotoxicity against mouse NIH/3T3 cells after 72 hrs by MTT assay. The settings on record: NIH3T3, 72 h. Format: cell-based.
The nature of data set [6]: Acute toxicity in po dosed rat. Format: organism-based. The settings on record: in vivo.
In data set [7] the test system is 4T1. Briefly: Antitumor activity against mouse 4T1 cells allografted in BALB/c mouse assessed as tumor growth inhibition at 1.8 mg/kg, ip administered 24 hrs post tumor implantation on even days of total 9 doses for 18 days relative to control. Format: functional. As to conditions: 4T1, ip, route intraperitoneal, read-out: TGI.
In data set [8] the test system is 4T1. Briefly: Antitumor activity against mouse 4T1 cells allografted in BALB/c mouse assessed as tumor growth inhibition at 15 mg/kg, ip administered 24 hrs post tumor implantation on even days of total 9 doses for 18 days measured after 18 days relative to control. It is filed as functional.
A further data set relates to CCRF S-180. Briefly: Antitumor activity against mouse S180 cells allografted in ICR mouse assessed as tumor growth inhibition at 15 mg/kg, ip qd administered 24 hrs post tumor implantation for 9 days measured after 9 days relative to control. It is filed as functional, organism-based. On the set-up: dose 15 mg/kg.
The next data set concerns Mus musculus. The data set can be described thus: Toxicity in mouse 4T1 cells allografted BALB/c mouse assessed as body weight loss at 15 mg/kg, ip administered 24 hrs post tumor implantation on even days of total 9 doses for 18 days measured after 18 days relative to control. As to conditions: in vivo, 432 h. Format: organism-based. More on the design: dose 15 mg/kg, route intraperitoneal.

Here are results for 16 compounds from ChEMBL document CHEMBL3351494, “Selenium analogues of raloxifene as promising antiproliferative agents in treatment of breast cancer” (Eur J Med Chem, 2014).

The source made the active and inactive calls. The calls are words filed in the database; no cut-off is given here.

Take `CN(C)CCOc1ccc(C(=O)c2c(-c3ccc(O)cc3)[se]c3cc(O)ccc23)cc1.Cl`: the half-maximal inhibitory concentration (IC50) in data set [1] worked out at 28 µM; in data set [2], 26 µM; in data set [3] it was 51 µM; in the data set on MCF7, 22 µM; in [4], 48 µM; with MG-22A, 9 µM. Also, the concentration for half-maximal inhibition (IC50) in data set [5] came out at 20 µM. This compound also came in with an LD50 in data set [6] of 413 mg/kg.
Turning to `CN(C)CCOc1ccc(C(=O)c2[se]c3cc(O)ccc3c2-c2ccc(O)cc2)cc1.Cl`, the 50% inhibitory concentration (IC50) in data set [1] came to 3.8 µM; in data set [2] it was 3.8 µM; in data set [3], 5.8 µM; in the data set on MCF7, 17.3 µM; in data set [4] it was 5.8 µM; in the data set on MG-22A, 3.9 µM. This compound registered an IC50 in data set [5] of 31 µM. For the same compound, in data set [6], the LD50 turned out to be 674 mg/kg.
In the case of `Cl.O=C(c1ccc(OCCN2CCOCC2)cc1)c1[se]c2cc(O)ccc2c1-c1ccc(O)cc1`, the half-maximal inhibitory concentration (IC50) came to 3.4 µM in [1]; 15.5 µM in data set [2]; 6.9 µM in [3]; 31 µM in the data set with MCF7; 8.6 µM in data set [4]; 5.2 µM in the data set on MG-22A. Also, the midpoint of inhibition in data set [5], the IC50, lay at 16 µM. Also, in data set [6], the LD50 turned out to be 465 mg/kg.
For the compound `Cl.O=C(c1ccc(OCCN2CCCCCC2)cc1)c1c(-c2ccc(O)cc2)[se]c2cc(O)ccc12`, the IC50 in [1] came out at 36 µM; in [2], 14 µM; in data set [3], 39 µM; in the data set on MCF7 it was 40 µM; in [4], 27 µM; with MG-22A, 5.2 µM. Besides, the IC50 in data set [5] was 14 µM. In addition, the 50% lethal dose (LD50) in data set [6] is 400 mg/kg.
In the case of `Cl.O=C(c1ccc(OCCN2CCOCC2)cc1)c1c(-c2ccc(F)cc2)[se]c2cc(F)ccc12`, the IC50 in data set [1] amounted to 25 µM; in data set [2], 168 µM; in data set [3], 53 µM; in the data set with MCF7, 121 µM; in data set [4] it was 27 µM; in the data set with MG-22A, 21 µM. The compound further registered a concentration for half-maximal inhibition (IC50) in [5] of 363 µM. The same compound returned an LD50 in data set [6] of 1410 mg/kg.
With `C[N+](C)(C)CCOc1ccc(C(=O)c2c(-c3ccc(O)cc3)[se]c3cc(O)ccc23)cc1.[Cl-]`, the half-maximal inhibitory concentration (IC50) in data set [4] amounted to 131 µM; with MG-22A, 124 µM; in [5], 452 µM. The LD50 in data set [6] came to 1540 mg/kg.
On to `Cl.O=C(c1ccc(OCCN2CCCCC2)cc1)c1[se]c2cc(O)ccc2c1-c1ccc(O)cc1`, for which the half-maximal inhibitory concentration (IC50) in data set [1] stood at 3.6 µM; in data set [2], 32 µM; in data set [3] it was 14.3 µM; in the data set with MCF7, 25 µM; in data set [4], 30 µM; with MG-22A it was 3.6 µM. Further, in data set [5], the 50% inhibitory concentration (IC50) is 28 µM. Further, the LD50 in data set [6] came to 615 mg/kg.
Turning to `O=C(c1ccc(OCCN2CCCCC2)cc1)c1c(-c2ccc(O)cc2)sc2cc(O)ccc12` [RALOXIFENE], the 50% inhibitory concentration (IC50) in [1] was found to be 27 µM; in [2], 26 µM; in [3], 37 µM; in the data set with MCF7, 50 µM; in data set [4], 34 µM; in the data set with MG-22A, 6.8 µM. The 50% inhibitory concentration (IC50) in [5] stood at 7.8 µM. Further, the inhibition in vivo at 1.8 mg/kg in the data set on 4T1 [7] came to 70%. Further, the TGI result in the data set with 4T1 [8] and in the data set on CCRF S-180 was “inactive” each time. Besides, in data set [6], the 50% lethal dose (LD50) stood at 255 mg/kg.
As for `O=[Se]([O-])[O-].[Na+].[Na+]` [SODIUM SELENITE], the IC50 was found to be 8 µM in data set [1]; 12 µM in data set [2]; 29 µM in [3]; 17 µM in the data set on MCF7; 1.7 µM in [4]; 64 µM with MG-22A. Moreover, the half-maximal inhibitory concentration (IC50) in data set [5] came to 23 µM. This compound showed an LD50 in data set [6] of 105 mg/kg.
With `Cl.O=C(c1ccc(OCCN2CCCC2)cc1)c1c(-c2ccc(O)cc2)[se]c2cc(O)ccc12`, the IC50 in data set [1] was 34 µM; in [2], 43 µM; in data set [3], 32 µM; with MCF7, 33 µM; in data set [4] it was 36 µM; in the data set with MG-22A it was 21 µM. For the same compound, in data set [5], inhibition was half-maximal at 42 µM (IC50). Besides, the LD50 in [6] came out at 543 mg/kg.
With `CNCCOc1ccc(C(=O)c2c(-c3ccc(O)cc3)[se]c3cc(O)ccc23)cc1.Cl`, the IC50 in [1] came out at 46 µM; in [2], 17 µM; in data set [3], 42 µM; with MCF7, 12 µM; in data set [4], 6 µM; with MG-22A, 6 µM. 32 µM corresponded to half-maximal inhibition in data set [5] (IC50). In data set [6], this compound returned a median lethal dose (LD50) of 452 mg/kg.
Regarding `Cl.O=C(c1ccc(OCCN2CCCCC2)cc1)c1c(-c2ccc(O)cc2)[se]c2cc(O)ccc12`, the 50% inhibitory concentration (IC50) in data set [1] worked out at 5.4 µM; in [2] it was 3.6 µM; in [3] it was 56 µM; in the data set on MCF7, 35 µM; in [4], 12 µM; in the data set on MG-22A, 5.4 µM. Moreover, the IC50 in data set [5] stood at 22 µM. Moreover, the inhibition in vivo at 1.8 mg/kg in the data set on 4T1 [7] was 4%. Besides, in the data set on 4T1 [8] (4T1, ip, route intraperitoneal, read-out: TGI), the inhibition in vivo at 15 mg/kg stood at 30%. Besides, the Activity result in the data set with Mus musculus is “Non-toxic”. Moreover, in the data set with CCRF S-180, the TGI result was “inactive”. The compound also displayed an LD50 in data set [6] of 446 mg/kg.
As for `Cl.O=C(c1ccc(OCCN2CCOCC2)cc1)c1c(-c2ccc(O)cc2)[se]c2cc(O)ccc12`, the half-inhibitory concentration (IC50) was determined as 9.8 µM in data set [1]; 32 µM in data set [2]; 61 µM in data set [3]; 38 µM with MCF7; 46 µM in [4]; 8 µM in the data set with MG-22A. This compound came in with an IC50 in data set [5] of 36 µM. The compound further registered an LD50 in data set [6] of 553 mg/kg.
In the case of `CCCCCCCCN(C)CCOc1ccc(C(=O)c2c(-c3ccc(O)cc3)[se]c3cc(O)ccc23)cc1.Cl`, the concentration for half-maximal inhibition (IC50) in [1] stood at 4.7 µM; in data set [2], 4 µM; in data set [3], 4 µM; in the data set on MCF7 it was 4.7 µM; in data set [4], 4.7 µM; in the data set on MG-22A it was 3.2 µM. In [5], the IC50 was 8 µM. The same compound came in with a median lethal dose (LD50) in [6] of 308 mg/kg.
For `Cl.O=C(c1ccc(OCCN2CCCCC2)cc1)c1c(-c2ccc(F)cc2)[se]c2cc(F)ccc12`, the IC50 in data set [1] was 3.6 µM; in data set [2], 3.6 µM; in data set [3] it was 4.5 µM; in the data set on MCF7, 11.6 µM; in data set [4], 4.5 µM; in the data set with MG-22A, 4.5 µM. Further, half-maximal inhibition in data set [5] (IC50) required 9 µM. In data set [6], this compound came in with an LD50 of 280 mg/kg.
Regarding `CN(C)CCOc1ccc(C(=O)c2c(-c3ccc(F)cc3)[se]c3cc(F)ccc23)cc1.Cl`, the concentration for half-maximal inhibition (IC50) in [1] worked out at 3.8 µM; in data set [2], 3.5 µM; in data set [3] it was 3.8 µM; in the data set with MCF7, 6.7 µM; in data set [4], 4.8 µM; in the data set on MG-22A, 3.8 µM. 11 µM corresponded to half-maximal inhibition in [5] (IC50). For the same compound, in data set [6], the LD50 worked out at 313 mg/kg.

In general, IC50 refers to the point on the concentration scale where inhibition reaches its midpoint. For orientation: LD50 means the dose at which mortality reaches 50%. Lower therefore signals a more toxic substance.
